From ChEMBL document CHEMBL2074527, “Evidence for the absolute conformational specificity of the intestinal H+/peptide symporter, PEPT1” (J Biol Chem, 1998) come the findings set out here.

In the assay the target is T1, Solute carrier family 15 member 1 (Homo sapiens, UniProt P46059).
T1 sequence (P46059 whole entry): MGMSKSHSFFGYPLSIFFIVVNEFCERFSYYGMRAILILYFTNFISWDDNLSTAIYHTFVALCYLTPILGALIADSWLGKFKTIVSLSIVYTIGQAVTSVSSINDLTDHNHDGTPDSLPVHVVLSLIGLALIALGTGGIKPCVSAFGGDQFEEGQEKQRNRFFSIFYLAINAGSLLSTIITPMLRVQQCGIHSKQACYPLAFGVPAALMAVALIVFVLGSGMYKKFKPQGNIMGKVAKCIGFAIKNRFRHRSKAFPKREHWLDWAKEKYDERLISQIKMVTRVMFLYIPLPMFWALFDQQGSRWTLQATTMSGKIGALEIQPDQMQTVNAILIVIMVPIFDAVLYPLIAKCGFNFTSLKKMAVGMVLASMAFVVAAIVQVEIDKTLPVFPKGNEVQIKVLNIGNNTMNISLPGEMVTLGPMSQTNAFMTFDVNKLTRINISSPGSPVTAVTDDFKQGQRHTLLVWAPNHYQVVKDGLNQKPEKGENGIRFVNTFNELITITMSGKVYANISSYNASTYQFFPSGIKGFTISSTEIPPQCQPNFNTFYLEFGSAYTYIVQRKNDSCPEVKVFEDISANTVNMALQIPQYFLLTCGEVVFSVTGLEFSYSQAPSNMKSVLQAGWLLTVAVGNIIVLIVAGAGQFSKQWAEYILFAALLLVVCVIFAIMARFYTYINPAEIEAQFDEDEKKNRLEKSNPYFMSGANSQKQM
The assay can be described thus: TP_TRANSPORTER: inhibition of Gly-Sar uptake, 96% trans conformation in Caco-2 cells. In kind it is functional, cell-based.

The molecule `CC(N)C(=S)N1CCCC1C(=O)O` (stereo unspecified) registered an inhibitory constant (Ki) of 300 µM.

A word on the Ki: it is a measure of affinity in units of concentration, obtained from inhibition or displacement. Read a low Ki as tighter binding.
